Where two headings read alike, the source gives them in different places.
Key:
[1] = biological target: T1, human TRPA1 (Homo sapiens, UniProt O75762, K186N/R3C/R58T); experiment: Intracellular calcium (Fluo-4, FLIPR) activation of TRPA1 cells by GRAS compounds; format: cell-based; conditions: 1 mM, relative to AITC 30 μM; for activation at 1000 µM: read-out: A1 activation, % of agonist value;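 on all read-outs here: TRPA1-expressing cells, fluorescence read on a FLIPR Tetra (ex 488 nm, em 514 nm) every 2 s for 10 min after compound addition, baseline subtracted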
T1 construct: expressed in transfected cells; pcDNA3 control cells
T1 sequence (O75762 whole entry R3C/R58T/K186N): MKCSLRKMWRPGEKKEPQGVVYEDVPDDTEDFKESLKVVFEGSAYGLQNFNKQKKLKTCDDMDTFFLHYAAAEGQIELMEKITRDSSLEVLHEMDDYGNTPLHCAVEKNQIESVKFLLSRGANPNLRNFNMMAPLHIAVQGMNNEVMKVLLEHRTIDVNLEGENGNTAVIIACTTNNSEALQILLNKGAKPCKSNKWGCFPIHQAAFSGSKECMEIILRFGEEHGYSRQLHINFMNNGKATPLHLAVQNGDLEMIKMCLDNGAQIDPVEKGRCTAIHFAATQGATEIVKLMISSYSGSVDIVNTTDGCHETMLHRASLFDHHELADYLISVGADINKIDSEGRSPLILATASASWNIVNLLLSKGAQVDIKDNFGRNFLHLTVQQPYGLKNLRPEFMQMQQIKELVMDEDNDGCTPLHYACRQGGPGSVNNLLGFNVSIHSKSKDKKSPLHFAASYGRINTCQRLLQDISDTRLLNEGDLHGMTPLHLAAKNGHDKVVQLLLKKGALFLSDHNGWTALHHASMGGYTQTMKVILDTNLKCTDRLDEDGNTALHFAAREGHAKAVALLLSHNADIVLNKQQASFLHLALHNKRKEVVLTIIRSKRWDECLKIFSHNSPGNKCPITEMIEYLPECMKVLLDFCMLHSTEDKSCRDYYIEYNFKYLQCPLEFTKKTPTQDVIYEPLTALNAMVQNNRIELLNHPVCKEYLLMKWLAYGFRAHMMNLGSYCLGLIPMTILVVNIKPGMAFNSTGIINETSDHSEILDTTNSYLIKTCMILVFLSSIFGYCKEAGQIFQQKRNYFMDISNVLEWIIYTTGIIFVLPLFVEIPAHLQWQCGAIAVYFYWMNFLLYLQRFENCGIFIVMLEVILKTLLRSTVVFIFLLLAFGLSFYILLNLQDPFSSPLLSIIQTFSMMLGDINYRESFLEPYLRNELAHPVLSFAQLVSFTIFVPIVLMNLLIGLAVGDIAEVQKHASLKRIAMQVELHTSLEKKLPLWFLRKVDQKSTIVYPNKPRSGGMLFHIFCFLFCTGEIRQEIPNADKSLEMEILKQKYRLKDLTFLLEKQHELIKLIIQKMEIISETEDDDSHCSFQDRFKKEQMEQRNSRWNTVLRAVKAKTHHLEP

[2] = biological target: T2, human TRPV1 (Homo sapiens, UniProt Q8NER1, M315I/T336M); experiment: Intracellular calcium (Fluo-4, FLIPR) activation of TRPV1 cells by GRAS compounds; format: cell-based; conditions: 1 mM, relative to capsaicin 350 nM; for activation at 1000 µM: read-out: V1 activation, % of agonist value;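 on all read-outs here: TRPV1-expressing cells, FLIPR fluorescence at 488/514 nm with baseline subtracted, sampled every 2 s for 10 min after adding compound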
T2 construct: expressed in transfected cells; pcDNA3 control cells
T2 sequence (Q8NER1 whole entry M315I/T336M): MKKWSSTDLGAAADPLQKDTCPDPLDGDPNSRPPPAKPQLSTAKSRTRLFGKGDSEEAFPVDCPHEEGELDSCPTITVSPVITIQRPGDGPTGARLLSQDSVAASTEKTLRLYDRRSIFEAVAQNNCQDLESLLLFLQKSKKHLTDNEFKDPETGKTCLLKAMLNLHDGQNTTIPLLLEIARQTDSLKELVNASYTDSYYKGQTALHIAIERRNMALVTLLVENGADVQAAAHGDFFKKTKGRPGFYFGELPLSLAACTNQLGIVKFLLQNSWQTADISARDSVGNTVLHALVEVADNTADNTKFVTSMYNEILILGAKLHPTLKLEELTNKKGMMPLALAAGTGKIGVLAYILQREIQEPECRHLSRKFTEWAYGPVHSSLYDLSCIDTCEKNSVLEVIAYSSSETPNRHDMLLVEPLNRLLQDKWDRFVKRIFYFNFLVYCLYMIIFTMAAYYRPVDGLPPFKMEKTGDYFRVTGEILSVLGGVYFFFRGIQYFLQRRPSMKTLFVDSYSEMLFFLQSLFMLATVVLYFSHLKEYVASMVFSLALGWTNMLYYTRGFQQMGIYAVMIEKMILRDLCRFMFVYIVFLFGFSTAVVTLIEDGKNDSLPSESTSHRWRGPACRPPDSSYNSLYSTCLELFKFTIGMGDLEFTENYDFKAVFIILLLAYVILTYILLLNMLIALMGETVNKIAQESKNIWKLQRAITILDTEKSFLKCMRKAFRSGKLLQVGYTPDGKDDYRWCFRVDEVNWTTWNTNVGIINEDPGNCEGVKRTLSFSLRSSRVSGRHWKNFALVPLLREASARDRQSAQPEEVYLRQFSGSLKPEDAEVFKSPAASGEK

[3] = system: TRPA1V1; experiment: Intracellular calcium (Fluo-4, FLIPR) activation of TRPA1V1 cells (co-expressing TRPA1 and TRPV1) by GRAS compounds; format: cell-based, human; conditions: 1 mM, relative to AITC 30 μM;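 further: HEK293 cells co-expressing TRPA1 and TRPV1, fluorescence read at 488/514 nm after baseline subtraction, recorded every 2 s over 10 min, ionomycin 10 µM and buffer as controls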
[4] = Table 1(a), average of three plates

SMILES: CC/C=C\CCCCO [5-Octen-1-ol, (Z)]
- A1 activation, % of agonist value [1, 4]: 62.30%
- V1 activation, % of agonist value [2, 4]: 20.50%
- A1V1 activation, % of agonist value [3, 4]: 69.24%

SMILES: CCCC1CC(=O)C=C(C)C1 (stereo not drawn) [3-Methyl-5-propyl-2-cyclohexen-1-one]
- activation at 1000 µM ([1]; Table 1(b)): 69%
- activation at 1000 µM ([2]; Table 1(b)): 59.2%
- A1V1 activation, % of agonist value ([3]; Table 1(b)): 101.0%

SMILES: CC(C=O)Cc1ccc2c(c1)OCO2 (stereo not drawn) [Helional]
- A1 activation, % of agonist value [1, 4]: 78.00%
- V1 activation, % of agonist value [2, 4]: 23.38%
- A1V1 activation, % of agonist value [3, 4]: 71.85%

SMILES: CCCCCCCCCCCCCCCC(=O)OC/C=C(C)/C=C/C=C(C)/C=C/C1=C(C)CCCC1(C)C [Retinol palmitate]
- activation at 1000 µM [1, 4]: 76.4%
- activation at 1000 µM [2, 4]: 32.8%
- A1V1 activation, % of agonist value [3, 4]: 76.97%

SMILES: S=C=NCc1ccccc1 [Isothiocyanic acid, benzyl ester]
- activation at 1000 µM [1, 4]: 110%
- activation at 1000 µM [2, 4]: 59.2%
- A1V1 activation, % of agonist value [3, 4]: 180.5%
